Source: US20120058989A1, “ANTIBACTERIAL FLUOROQUINOLONE ANALOGS” (Achaogen, Inc., priority 2008, published 2012)
In brackets after ≈: the same amount, converted by molar mass. Read-outs that look alike come from different tables or passages of the source.

How the values were obtained:
Experiment in all cases: MIC, CLSI broth microdilution
Type in all cases: cell-based
[1] = tested on: E. coli AECO001 (Fluoroquinolone susceptible, ATCC25922); conditions: for MIC: Escherichia coli
Outline: (§1)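 Test compounds were diluted two-fold at 2× strength in Mueller Hinton Broth, then combined 1:1 with saline-suspended bacteria from an overnight agar colony to reach 5×10^5 CFU/mL. Incubation followed at 35° C. for 20 hours in ambient air, per CLSI reference methods.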

[2] = tested on: S. pneumoniae ASPN1018 (Fluoroquinolone-resistant); conditions: Table 3
Outline: as §1

[3] = tested on: S. aureus ASAU1033 (Fluoroquinolone-resistant); conditions: Table 3
Outline: as §1

[4] = tested on: A. baumannii AABA1065 (Fluoroquinolone-susceptible); conditions: for MIC: Acinetobacter baumannii
Outline: as §1

[5] = tested on: A. baumannii AABA1009 (Fluoroquinolone-resistant); conditions: for MIC AABA 1009: Table 2
Outline: as §1

[6] = tested on: E. coli AECO002 (Fluoroquinolone susceptible); conditions: Table 3
Outline: as §1

[7] = tested on: E. coli AECO086 (Fluoroquinolone-resistant); conditions: Table 3
Outline: as §1

[8] = tested on: P. aeruginosa APAE002 (Fluoroquinolone susceptible); conditions: Table 3
Outline: as §1

[9] = tested on: S. aureus ASAU001 (Fluoroquinolone-susceptible, ATCC29213); conditions: for MIC: Staphylococcus aureus
Outline: as §1

[10] = tested on: P. aeruginosa APAE054 (Fluoroquinolone-resistant); conditions: for MIC: Pseudomonas aeruginosa
Outline: as §1

[11] = tested on: S. pneumoniae ASPN002 (Fluoroquinolone-susceptible, ATCC10813); conditions: Table 3
Outline: as §1

[12] = tested on: P. aeruginosa APAE001 (Fluoroquinolone-susceptible, ATCC27853); conditions: for MIC: Pseudomonas aeruginosa
Outline: as §1

[13] = tested on: A. baumannii AABA1020 (Fluoroquinolone-resistant); conditions: Table 3
Outline: as §1

[14] = tested on: S. aureus ASAU002 (Fluoroquinolone-susceptible, ATCC33591 (MRSA)); conditions: Table 3
Outline: as §1

[15] = tested on: E. coli AECO066 (Fluoroquinolone-resistant); conditions: for MIC: Escherichia coli
Outline: as §1

[16] = tested on: S. aureus ASAU1031 (Fluoroquinolone-resistant); conditions: for MIC: Staphylococcus aureus
Outline: as §1

[17] = tested on: S. pneumoniae ASPN001 (Fluoroquinolone-susceptible, ATCC49619); conditions: for MIC: Streptococcus pneumoniae
Outline: as §1

[18] = tested on: S. pneumoniae ASPN1027 (Fluoroquinolone-resistant); conditions: for MIC: Streptococcus pneumoniae
Outline: as §1

SMILES: N[C@H]1C[C@H]2CCCc3c(c(F)cc4c(=O)c(C(=O)O)cn(C5CC5)c34)N2C1 [3/15]
- MIC ([1]; Table 2, 35° C., 20 hours, read-out: MIC AECO 001): ≤ 1 µg/mL
- MIC ([1]; Table 3): < 1 µg/mL
- MIC ([2]; Streptococcus pneumoniae): 1 to 2 µg/mL (≈ 2.69 to 5.38 µM)
- MIC ([3]; Staphylococcus aureus): > 8 µg/mL
- MIC ([4]; Table 2, read-out: MIC AABA 1065): ≤ 1 µg/mL
- MIC ([4]; Table 3): < 1 µg/mL
- MIC ([5]; Acinetobacter baumannii, Table 2, read-out: MIC AABA 1009): > 8 µg/mL
- MIC ([6]; Escherichia coli): < 1 µg/mL
- MIC ([7]; Escherichia coli): 2 to 8 µg/mL (≈ 5.38 to 21.5 µM)
- MIC ([8]; Pseudomonas aeruginosa): < 1 µg/mL
- MIC ([9]; Table 2, read-out: MIC ASAU 001): ≤ 1 µg/mL
- MIC ([9]; Table 3): < 1 µg/mL
- MIC ([10]; Table 2, read-out: MIC APAE 054): > 8 µg/mL
- MIC ([10]; Table 3): > 8 µg/mL
- MIC ([11]; Streptococcus pneumoniae): < 1 µg/mL
- MIC ([12]; Table 2, read-out: MIC APAE 001): 1 to 8 µg/mL (≈ 2.69 to 21.5 µM)
- MIC ([12]; Table 3): < 1 µg/mL
- MIC ([13]; Acinetobacter baumannii): > 8 µg/mL
- MIC ([14]; Staphylococcus aureus): < 1 µg/mL
- MIC ([15]; Table 2, read-out: MIC AECO 066): 1 to 8 µg/mL (≈ 2.69 to 21.5 µM)
- MIC ([15]; Table 3): 2 to 8 µg/mL (≈ 5.38 to 21.5 µM)
- MIC ([16]; Table 2, read-out: MIC ASAU 1031): 1 to 8 µg/mL (≈ 2.69 to 21.5 µM)
- MIC ([16]; Table 3): 2 to 8 µg/mL (≈ 5.38 to 21.5 µM)
- MIC ([17]; Table 2, read-out: MIC ASPN 001): ≤ 1 µg/mL
- MIC ([17]; Table 3): < 1 µg/mL
- MIC ([18]; Table 2, read-out: MIC ASPN 1027): 1 to 8 µg/mL (≈ 2.69 to 21.5 µM)
- MIC ([18]; Table 3): 2 to 8 µg/mL (≈ 5.38 to 21.5 µM)

SMILES: NC1CC2CCCc3c(c(F)cc4c(=O)c(C(=O)O)cn(C5CC5)c34)N2C1.O=C(O)C(F)(F)F [7C/29, (7aS,9S)-9-Amino-4-cyclopropyl-12-fluoro-1-oxo-4,5,6,7,7a,8,9,10-octahydro-1H-pyrrolo quinoline-2-carboxylic acid trifluoroacetate]
- MIC AECO 001 ([1]; Table 2, 35° C., 20 hours): B (MIC's of greater than 1.0 μg/mL to 8.0 μg/mL = B)
- MIC AECO 001 ([1]; Table 3): C (MIC's of 2.0 μg/mL to 8.0 μg/mL = C)
- MIC ASPN1018 [2]: D (MIC's of greater than 8.0 μg/mL = D)
- MIC ASAU1033 [3]: D (MIC's of greater than 8.0 μg/mL = D)
- MIC AABA 1065 ([4]; Table 2): B (MIC's of greater than 1.0 μg/mL to 8.0 μg/mL = B)
- MIC AABA 1065 ([4]; Table 3): C (MIC's of 2.0 μg/mL to 8.0 μg/mL = C)
- MIC AABA 1009 [5]: C (MIC's of greater than 8.0 μg/mL = C)
- MIC AECO002 [6]: C (MIC's of 2.0 μg/mL to 8.0 μg/mL = C)
- MIC AECO086 [7]: D (MIC's of greater than 8.0 μg/mL = D)
- MIC APAE002 [8]: D (MIC's of greater than 8.0 μg/mL = D)
- MIC ASAU 001 ([9]; Table 2): B (MIC's of greater than 1.0 μg/mL to 8.0 μg/mL = B)
- MIC ASAU 001 ([9]; Table 3): C (MIC's of 2.0 μg/mL to 8.0 μg/mL = C)
- MIC APAE 054 ([10]; Table 2): C (MIC's of greater than 8.0 μg/mL = C)
- MIC APAE 054 ([10]; Table 3): D (MIC's of greater than 8.0 μg/mL = D)
- MIC ASPN002 [11]: D (MIC's of greater than 8.0 μg/mL = D)
- MIC APAE 001 ([12]; Table 2): C (MIC's of greater than 8.0 μg/mL = C)
- MIC APAE 001 ([12]; Table 3): D (MIC's of greater than 8.0 μg/mL = D)
- MIC AABA1020 [13]: D (MIC's of greater than 8.0 μg/mL = D)
- MIC ASAU002 [14]: C (MIC's of 2.0 μg/mL to 8.0 μg/mL = C)
- MIC AECO 066 ([15]; Table 2): C (MIC's of greater than 8.0 μg/mL = C)
- MIC AECO 066 ([15]; Table 3): D (MIC's of greater than 8.0 μg/mL = D)
- MIC ASAU 1031 ([16]; Table 2): C (MIC's of greater than 8.0 μg/mL = C)
- MIC ASAU 1031 ([16]; Table 3): D (MIC's of greater than 8.0 μg/mL = D)
- MIC ASPN 001 ([17]; Table 2): C (MIC's of greater than 8.0 μg/mL = C)
- MIC ASPN 001 ([17]; Table 3): D (MIC's of greater than 8.0 μg/mL = D)
- MIC ASPN 1027 ([18]; Table 2): C (MIC's of greater than 8.0 μg/mL = C)
- MIC ASPN 1027 ([18]; Table 3): D (MIC's of greater than 8.0 μg/mL = D)

SMILES: N[C@H]1CCN2c3c(F)cc4c(=O)c(C(=O)O)cn(C5CC5)c4c3CCC[C@H]12.O=C(O)C(F)(F)F [17/10, (7aR,8S)-8-Amino-4-cyclopropyl-12-fluoro-1-oxo-4,5,6,7,7a,8,9,10-octahydro-1H-pyrrolo[1′,2′:1,7]azepino-[2,3-h]quinoline-2-carboxylic acid trifluoroacetate]
- MIC AECO 001 ([1]; Table 2, 35° C., 20 hours): A (MIC's of 1.0 μg/mL or less = A)
- MIC AECO 001 ([1]; Table 3): A (MIC's of less than 1.0 = A)
- MIC ASPN1018 [2]: C (MIC's of 2.0 μg/mL to 8.0 μg/mL = C)
- MIC ASAU1033 [3]: D (MIC's of greater than 8.0 μg/mL = D)
- MIC AABA 1065 ([4]; Table 2): A (MIC's of 1.0 μg/mL or less = A)
- MIC AABA 1065 ([4]; Table 3): A (MIC's of less than 1.0 = A)
- MIC AABA 1009 [5]: C (MIC's of greater than 8.0 μg/mL = C)
- MIC AECO002 [6]: A (MIC's of less than 1.0 = A)
- MIC AECO086 [7]: D (MIC's of greater than 8.0 μg/mL = D)
- MIC APAE002 [8]: A (MIC's of less than 1.0 = A)
- MIC ASAU 001 ([9]; Table 2): A (MIC's of 1.0 μg/mL or less = A)
- MIC ASAU 001 ([9]; Table 3): A (MIC's of less than 1.0 = A)
- MIC APAE 054 ([10]; Table 2): C (MIC's of greater than 8.0 μg/mL = C)
- MIC APAE 054 ([10]; Table 3): D (MIC's of greater than 8.0 μg/mL = D)
- MIC ASPN002 [11]: A (MIC's of less than 1.0 = A)
- MIC APAE 001 ([12]; Table 2): B (MIC's of greater than 1.0 μg/mL to 8.0 μg/mL = B)
- MIC APAE 001 ([12]; Table 3): B (MIC's of 1.0 μg/mL to 2.0 μg/mL = B)
- MIC AABA1020 [13]: D (MIC's of greater than 8.0 μg/mL = D)
- MIC ASAU002 [14]: A (MIC's of less than 1.0 = A)
- MIC AECO 066 ([15]; Table 2): C (MIC's of greater than 8.0 μg/mL = C)
- MIC AECO 066 ([15]; Table 3): D (MIC's of greater than 8.0 μg/mL = D)
- MIC ASAU 1031 ([16]; Table 2): B (MIC's of greater than 1.0 μg/mL to 8.0 μg/mL = B)
- MIC ASAU 1031 ([16]; Table 3): B (MIC's of 1.0 μg/mL to 2.0 μg/mL = B)
- MIC ASPN 001 ([17]; Table 2): A (MIC's of 1.0 μg/mL or less = A)
- MIC ASPN 001 ([17]; Table 3): A (MIC's of less than 1.0 = A)
- MIC ASPN 1027 ([18]; Table 2): B (MIC's of greater than 1.0 μg/mL to 8.0 μg/mL = B)
- MIC ASPN 1027 ([18]; Table 3): B (MIC's of 1.0 μg/mL to 2.0 μg/mL = B)
